# Laboratory results taken from publication PMC11220790 (Molecular Pharmaceutics, 2024).
# Like-named read-outs stand apart in the source and are kept apart here.
# Assays:
# [1] = Solid-state stability under accelerated degradation conditions (40 °C, 75% RH)
# [2] = Intrinsic dissolution, rotating disk apparatus; format: physicochemical; settings: for IDR (intrinsic dissolution rate) pH 6.8: phosphate buffer pH 6.8, 37.0 ± 0.5 °C, 100 rpm
# Description: Intrinsic dissolution tests were carried out in triplicate using a rotating disk dissolution apparatus. […] The attachments containing the disks were immersed into 500 mL of phosphate buffer, pH 6.8, medium preheated at 37.0 ± 0.5 °C with the metallic rod rotating at 100 rpm.
# [3] = Photostability in aqueous media (DTIC degradation / 2-AZA formation kinetics); format: physicochemical; settings: for kg, photogeneration rate constant for 2-AZA: 5 mM solution, phosphate buffer pH 6.8, UV irradiation 5 h
# Description: The mobile phase consisted of a mixture of 0.1% (v/v) aqueous formic acid solution (A) and acetonitrile (B), in a gradient elution mode (0.0–2.5 min: 0% B; 2.5–4.0 min: 0–6% B; 4.0–5.0 min: 6–0% B; and 5.0–7.0 min: 0% B), delivered at a flow rate of 0.8 mL min^–1. […] The method validation followed the ICH Q2 (R2) guideline.[31] The parameters selectivity, linearity, precision, accuracy, and limits of quantitation and detection were evaluated.
# A triplicate of freshly prepared solutions at a concentration of 5 mM has been placed into clear glass vials and arranged at 30 cm from a black UV lamp (300 mm, 15 W) to be photoirradiated for 5 h.
# [4] = weak base; cited from earlier work
# [5] = Thermal analysis (DSC and TG); format: physicochemical
# Description: Thermogravimetric (TG) experiments were performed on a Shimadzu DTG-60 thermobalance, placing approximately 2.0 ± 0.2 mg of each sample in alumina pans and then heating at 10 °C min^–1 under a nitrogen flow (50 mL min^–1) from 25 to 600 °C. Differential scanning calorimetry (DSC) curves were obtained using a Shimadzu DSC-60 instrument. The samples (1.0 ± 0.2 mg) were placed in aluminum pans and heated at a constant rate of 10 °C min^–1 under a nitrogen flow (50 mL min^–1). According to TG data, the DSC measurements have been conducted until the degradation temperature of each compound. Shimadzu TA-60 software was employed in the data analysis.
# physchem = settings: 37 °C, thermodynamic from solid
# [6] = Solid-state photodegradation test (black UV lamp chamber); settings: for stability, % DTIC found / stability, % 2-AZA found: after 15 days in photostability chamber
# [7] = pKa and ΔpKa between DTIC and coformers; settings: between DTIC and the coformer, Table S4
# [8] = freshly prepared (initial) solid sample
# [9] = solid, after 90 days at 40 °C and 75% RH
Structure (SMILES),"stability, % DTIC found [1, 8]","stability, % DTIC found [1, 9]",IDR (intrinsic dissolution rate) pH 6.8 [2],"kg, photogeneration rate constant for 2-AZA [3]",photodegradation in solution under UV radiation (in words) ([3]; low-pH and diluted solutions),"TG: thermally stable up to / mass loss begins at ([5]; 10 °C min^–1, nitrogen flow)","Tonset of DSC exothermic degradation peak ([5]; 10 °C min^–1, nitrogen flow)","Tonset of TG mass loss ([5]; 10 °C min^–1, nitrogen flow)","decomposition temperature (DSC exothermic degradation peak) ([5]; 10 °C min^–1, nitrogen flow)","solubility at 24 h (physchem; HCl solution, pH 1.2, simulated gastric fluid)","solubility at 24 h (physchem; acetate buffer, pH 4.5, aqueous buffer)",reduction in the drug content during the photostability test ([6]; 15 days UV exposure),"stability, % DTIC found [6]",increase of IDR compared to DTIC ([2]; phosphate buffer pH 6.8),Tonset of DSC exothermic degradation peak [5],decomposition temperature (DSC exothermic degradation peak) [5],"stability, % 2-AZA found [6]",IDR compared with DTIC (in words) ([2]; phosphate buffer pH 6.8),ΔpKa (pKa(base) − pKa(acid)) [7],pKa [4]
"CN(C)/N=N/c1[nH]cnc1C(N)=O [DTIC, Dacarbazine, reference compound]",100.0 ± 0.2%,99.8 ± 0.3%,0.26 ± 0.02 mg cm^–2 min^–1,0.361 ± 0.04 mM h^–1,Complete and rapid photodegradation,208 °C,210.8 °C,206.5 °C,215.5 °C,20.4 ± 0.2 mg/mL,3.4 ± 0.2 mg/mL,5.6%,94.4 ± 0.5%,,,,,,,4.4
"CN(C)N=Nc1nc[nH]c1C(N)=O.O=C(O)/C=C/C(=O)O [DTIC-H2FUM, Dacarbazine-Fumaric Acid Cocrystal]",99.5 ± 0.3%,99.2 ± 0.2%,1.31 ± 0.05 mg cm^–2 min^–1,0.363 ± 0.02 mM h^–1,,around 163 °C,,159.4 °C,,,,,97.3 ± 0.2%,~5.1 fold,172.1 °C,178.1 °C,1.1 ± 0.1%,,,
"CN(C)N=Nc1nc[nH]c1C(N)=O.CN(C)N=Nc1nc[nH]c1C(N)=O.O.O.O.O.O=C(O)CC(O)(CC(=O)O)C(=O)O [DTIC-HCIT, Dacarbazine Hydrogen-Citrate Salt-Cocrystal]",99.8 ± 0.4%,96.0 ± 0.5%,0.35 ± 0.01 mg cm^–2 min^–1,0.338 ± 0.03 mM h^–1,,,,,,,,,97.0 ± 0.4%,,,,1.8 ± 0.2%,equivalent to those of DTIC,,
"CN(C)N=Nc1[nH]cnc1C(N)=O.O=C(O)C=CC(=O)O [DTIC-HMAL, Dacarbazine Hydrogen-Maleate Salt]",99.6 ± 0.4%,98.2 ± 0.4%,1.90 ± 0.06 mg cm^–2 min^–1,0.371 ± 0.02 mM h^–1,,,,,,,,,98.4 ± 0.2%,approximately 7.3 fold,,,1.7 ± 0.2%,,,

# Continued, in another order:
"stability, % DTIC found [1, 8]","stability, % DTIC found [1, 9]",IDR (intrinsic dissolution rate) pH 6.8 [2],"kg, photogeneration rate constant for 2-AZA [3]",photodegradation in solution under UV radiation (in words) ([3]; low-pH and diluted solutions),"TG: thermally stable up to / mass loss begins at ([5]; 10 °C min^–1, nitrogen flow)","Tonset of DSC exothermic degradation peak ([5]; 10 °C min^–1, nitrogen flow)","Tonset of TG mass loss ([5]; 10 °C min^–1, nitrogen flow)","decomposition temperature (DSC exothermic degradation peak) ([5]; 10 °C min^–1, nitrogen flow)","solubility at 24 h (physchem; HCl solution, pH 1.2, simulated gastric fluid)","solubility at 24 h (physchem; acetate buffer, pH 4.5, aqueous buffer)",reduction in the drug content during the photostability test ([6]; 15 days UV exposure),"stability, % DTIC found [6]",increase of IDR compared to DTIC ([2]; phosphate buffer pH 6.8),Tonset of DSC exothermic degradation peak [5],decomposition temperature (DSC exothermic degradation peak) [5],"stability, % 2-AZA found [6]",IDR compared with DTIC (in words) ([2]; phosphate buffer pH 6.8),ΔpKa (pKa(base) − pKa(acid)) [7],Structure (SMILES),pKa [4]
100.1 ± 0.1%,99.9 ± 0.2%,5.58 ± 0.08 mg cm^–2 min^–1,0.386 ± 0.03 mM h^–1,,around 166 °C,,161.7 °C,,,,,97.1 ± 0.3%,22 fold,170.2 °C,175.0 °C,2.2 ± 0.4%,,,"CN(C)N=Nc1[nH]cnc1C(N)=O.O=C(O)C(=O)O [DTIC-HOXA, Dacarbazine Hydrogen-Oxalate Salt]",
,,,,,,,,,,,,,,,,,,1.4,O=C(O)/C=C/C(=O)O [Fumaric acid],
,,,,,,,,,,,,,,,,,,2.5,O=C(O)/C=C\C(=O)O [Maleic acid],
